Assays:
Assay in all cases: relative viability (nuclei count vs DMSO), 5 days (fraction); higher = more cells survive
[1] = compound: Cc1cc(Nc2cc(N3CCN(C)CC3)nc(Sc3ccc(NC(=O)C4CC4)cc3)n2)n[nH]1 [Tozasertib] + O=C(c1cc(Cc2n[nH]c(=O)c3ccccc23)ccc1F)N1CCN(C(=O)C2CC2)CC1 [Olaparib] (partner 8 µM)
How it was run: (§1)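 Relative viability equals treated-well nuclei counts divided by vehicle-well nuclei counts. Counts came from 4× images of lung cancer cell lines grown in 1536-well plates for 5 days after pin-tool dosing on the day after seeding. Dosing used one drug alone or a fixed anchor-drug dose plus five library-drug doses (not always all listed) in √10 steps, and values are medians of duplicate plates.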

[2] = compound: Cc1cc(Nc2cc(N3CCN(C)CC3)nc(Sc3ccc(NC(=O)C4CC4)cc3)n2)n[nH]1 [Tozasertib] + O=C(CCCCCCC(=O)Nc1ccccc1)NO [Vorinostat] (partner 1 µM)
How it was run: as §1

[3] = compound: Cc1cc(Nc2cc(N3CCN(C)CC3)nc(Sc3ccc(NC(=O)C4CC4)cc3)n2)n[nH]1 [Tozasertib] + Nc1ncn([C@H]2C[C@H](O)[C@@H](CO)O2)c(=O)n1 [Decitabine] (partner 2 µM)
How it was run: as §1

[4] = compound: Cc1cc(Nc2cc(N3CCN(C)CC3)nc(Sc3ccc(NC(=O)C4CC4)cc3)n2)n[nH]1 [Tozasertib] + Cc1nc(Nc2ncc(C(=O)Nc3c(C)cccc3Cl)s2)cc(N2CCN(CCO)CC2)n1 [Dasatinib] (partner 0.075 µM)
How it was run: as §1

[5] = compound: Cc1cc(Nc2cc(N3CCN(C)CC3)nc(Sc3ccc(NC(=O)C4CC4)cc3)n2)n[nH]1 [Tozasertib] + N=C(N)NC(=N)NCCc1ccccc1 [Phenformin] (partner 250 µM)
How it was run: as §1

[6] = compound: Cc1cc(Nc2cc(N3CCN(C)CC3)nc(Sc3ccc(NC(=O)C4CC4)cc3)n2)n[nH]1 [Tozasertib] + CC(=O)c1c(C)c2cnc(Nc3ccc(N4CCNCC4)cn3)nc2n(C2CCCC2)c1=O [Palbociclib] (partner 0.5 µM)
How it was run: as §1

[7] = compound: Cc1cc(Nc2cc(N3CCN(C)CC3)nc(Sc3ccc(NC(=O)C4CC4)cc3)n2)n[nH]1 [Tozasertib] + Nc1nc2[nH]cc(CCc3ccc(C(=O)N[C@@H](CCC(=O)O)C(=O)O)cc3)c2c(=O)[nH]1 [Pemetrexed] (partner 0.2 µM)
How it was run: as §1

[8] = compound: Cc1cc(Nc2cc(N3CCN(C)CC3)nc(Sc3ccc(NC(=O)C4CC4)cc3)n2)n[nH]1 [Tozasertib] + CC(=O)Nc1cccc(-n2c(=O)n(C3CC3)c(=O)c3c(Nc4ccc(I)cc4F)n(C)c(=O)c(C)c32)c1 [Trametinib] (partner 0.02 µM)
How it was run: as §1

[9] = compound: Cc1cc(Nc2cc(N3CCN(C)CC3)nc(Sc3ccc(NC(=O)C4CC4)cc3)n2)n[nH]1 [Tozasertib] + NC(=O)Nc1cc(-c2cccc(F)c2)sc1C(=O)N[C@H]1CCCNC1 [AZD7762] (partner 0.2 µM)
How it was run: as §1

[10] = compound: Cc1cc(Nc2cc(N3CCN(C)CC3)nc(Sc3ccc(NC(=O)C4CC4)cc3)n2)n[nH]1 [Tozasertib] + CCNC(=O)c1noc(-c2cc(C(C)C)c(O)cc2O)c1-c1ccc(CN2CCOCC2)cc1 [Luminespib] (partner 0.01 µM)
How it was run: as §1

[11] = compound: Cc1cc(Nc2cc(N3CCN(C)CC3)nc(Sc3ccc(NC(=O)C4CC4)cc3)n2)n[nH]1 [Tozasertib] + COc1cccc2cc(-c3nc([C@H]4CC[C@H](C(=O)O)CC4)n4ncnc(N)c34)[nH]c12 [OSI-027] (partner 0.5 µM)
How it was run: as §1

[12] = compound: Cc1cc(Nc2cc(N3CCN(C)CC3)nc(Sc3ccc(NC(=O)C4CC4)cc3)n2)n[nH]1 [Tozasertib] + COc1cc2c(Oc3ccc(NC(=O)C4(C(=O)Nc5ccc(F)cc5)CC4)cc3F)ccnc2cc1OCCCN1CCOCC1 [Foretinib] (partner 0.25 µM)
How it was run: as §1

[13] = compound: Cc1cc(Nc2cc(N3CCN(C)CC3)nc(Sc3ccc(NC(=O)C4CC4)cc3)n2)n[nH]1 [Tozasertib]
How it was run: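 Only plates meeting two conditions passed: control CV below 25% and at least one doubling. Lung cancer cell lines, kept overnight at 37 °C in 1536-well plates, were pinned with five library-drug doses (not always all listed) √10 apart on vehicle-anchored plates and grown 5 days without medium change. A one-step fix, permeabilisation and Hoechst stain preceded 4× imaging and MetaXpress nuclear counting. Viability equals treated-well nuclei divided by vehicle-well nuclei, as the median over plates.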

NCI-H2342
relative viability ([1]; first compound 0.004 µM): 0.43 | relative viability ([1]; first compound 0.01265 µM): 0.44 | relative viability ([1]; first compound 0.04 µM): 0.471 | relative viability ([1]; first compound 0.1265 µM): 0.443 | relative viability ([2]; first compound 0.004 µM): 0.77 | relative viability ([2]; first compound 0.01265 µM): 0.78 | relative viability ([2]; first compound 0.04 µM): 0.782 | relative viability ([2]; first compound 0.1265 µM): 0.597 | relative viability ([3]; first compound 0.004 µM): 0.678 | relative viability ([3]; first compound 0.01265 µM): 0.738 | relative viability ([3]; first compound 0.04 µM): 0.723 | relative viability ([3]; first compound 0.1265 µM): 0.766 | relative viability ([4]; first compound 0.004 µM): 0.338 | relative viability ([4]; first compound 0.01265 µM): 0.293 | relative viability ([4]; first compound 0.04 µM): 0.314 | relative viability ([4]; first compound 0.1265 µM): 0.292 | relative viability ([5]; first compound 0.004 µM): 0.635 | relative viability ([5]; first compound 0.01265 µM): 0.607 | relative viability ([5]; first compound 0.04 µM): 0.57 | relative viability ([5]; first compound 0.1265 µM): 0.465 | relative viability ([6]; first compound 0.004 µM): 0.491 | relative viability ([6]; first compound 0.01265 µM): 0.511 | relative viability ([6]; first compound 0.04 µM): 0.476 | relative viability ([6]; first compound 0.1265 µM): 0.531 | relative viability ([7]; first compound 0.004 µM): 0.809 | relative viability ([7]; first compound 0.01265 µM): 0.778 | relative viability ([7]; first compound 0.04 µM): 0.744 | relative viability ([7]; first compound 0.1265 µM): 0.759 | relative viability ([8]; first compound 0.004 µM): 0.77 | relative viability ([8]; first compound 0.01265 µM): 0.969 | relative viability ([8]; first compound 0.04 µM): 0.849 | relative viability ([8]; first compound 0.1265 µM): 0.897 | relative viability ([9]; first compound 0.004 µM): 0.578 | relative viability ([9]; first compound 0.01265 µM): 0.532 | relative viability ([9]; first compound 0.04 µM): 0.514 | relative viability ([9]; first compound 0.1265 µM): 0.398 | relative viability ([10]; first compound 0.004 µM): 0.646 | relative viability ([10]; first compound 0.04 µM): 0.697 | relative viability ([10]; first compound 0.1265 µM): 0.767 | relative viability ([11]; first compound 0.004 µM): 0.654 | relative viability ([11]; first compound 0.01265 µM): 0.525 | relative viability ([11]; first compound 0.04 µM): 0.657 | relative viability ([11]; first compound 0.1265 µM): 0.582 | relative viability ([12]; first compound 0.004 µM): 0.949 | relative viability ([12]; first compound 0.01265 µM): 0.997 | relative viability ([12]; first compound 0.04 µM): 1.02 | relative viability ([12]; first compound 0.1265 µM): 0.908 | relative viability ([13]; 0.004 µM): 0.997 | relative viability ([13]; 0.1 µM, anchor plate): 0.52 | relative viability ([13]; 0.1265 µM): 0.909

Source: the supplement of paper PMC10307832
